Source: article PMC1253752, “Binding of Estrogenic Compounds to Recombinant Estrogen Receptor-α: Application to Environmental Analysis” (Environmental Health Perspectives, 2004)
Like-named read-outs stand apart in the source and are kept apart here.

Legend:
[1] = biological target: T1, ER-α (Homo sapiens, UniProt P03372); assay: MELN cell luciferase assay (estrogen-responsive reporter in MCF-7 cells); format: cell-based
T1 construct: we transfected ER-α–positive breast cancer MCF-7 cells; endogenous in cells; host or cells: MELN (MCF-7 stably transfected with ERE-βGlob-Luc-SVNeo)
T1 sequence (P03372 1-595): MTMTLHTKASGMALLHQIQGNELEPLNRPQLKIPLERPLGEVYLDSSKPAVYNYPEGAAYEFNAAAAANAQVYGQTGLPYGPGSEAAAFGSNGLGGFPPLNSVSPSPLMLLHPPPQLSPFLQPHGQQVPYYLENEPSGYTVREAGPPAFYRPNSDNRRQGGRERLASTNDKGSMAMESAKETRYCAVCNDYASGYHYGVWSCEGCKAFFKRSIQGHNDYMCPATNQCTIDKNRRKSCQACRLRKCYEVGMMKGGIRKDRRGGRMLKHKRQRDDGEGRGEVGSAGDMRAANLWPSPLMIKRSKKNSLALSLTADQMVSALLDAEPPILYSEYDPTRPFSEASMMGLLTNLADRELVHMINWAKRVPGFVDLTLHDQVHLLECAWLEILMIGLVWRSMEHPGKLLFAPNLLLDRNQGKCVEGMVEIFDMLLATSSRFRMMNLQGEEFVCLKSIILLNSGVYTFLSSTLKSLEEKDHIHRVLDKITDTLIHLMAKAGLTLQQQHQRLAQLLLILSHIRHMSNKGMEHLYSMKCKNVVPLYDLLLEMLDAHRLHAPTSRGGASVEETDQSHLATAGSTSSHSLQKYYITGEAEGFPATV
Description: Selection of resistant clones by geneticin was performed at 1 mg/mL.
(§1) For strain cultures, cells were grown in phenol red containing Dulbecco’s modified Eagle medium, 1 g/L glucose, supplemented with 5% fetal calf serum (FCS), and 1% antibiotic (penicillin/streptomycin) in a 5% CO2 humidified atmosphere at 37°C.
Cells were seeded at a density of 5 × 10^4 cells/well in 96-well white opaque tissue culture plates (Becton Dickinson, Le Pont de Claix, France) in 150 μL test culture medium. Compounds to be tested were prepared 4× concentrated in the same medium and 50 μL was added per well 8 hr after seeding. Cells were incubated with compounds for 16 hr. Experiments were performed in quadruplicate and repeated twice. At the end of incubation, effector containing medium was removed and replaced by […], luciferin diffuses into the cell and produces a luminescent signal that is stable from 5 min on. […] The 96-well plate was then introduced in a microplate luminometer (Centro LB 960, Berthold Technologies), and intact living cell luminescence measured for 2 sec. Results are expressed as a percentage of maximum luciferase activity. […] GraphPad Software Inc., San Diego, CA, USA). […]

[2] = biological target: T2, recombinant ER-α (hER-αLBD triple mutant) (Homo sapiens, UniProt P03372, C381S/C417S/C530S); assay: biochemical
T2 sequence (P03372 302-552 C381S/C417S/C530S): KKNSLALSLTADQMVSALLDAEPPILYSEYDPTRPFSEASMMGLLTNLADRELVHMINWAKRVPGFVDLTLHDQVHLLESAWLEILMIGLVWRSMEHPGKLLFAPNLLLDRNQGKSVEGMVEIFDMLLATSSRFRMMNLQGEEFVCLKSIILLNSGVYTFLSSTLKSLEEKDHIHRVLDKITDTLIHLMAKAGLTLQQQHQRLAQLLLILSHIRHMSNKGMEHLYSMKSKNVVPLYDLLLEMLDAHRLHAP

[3] = biological target: T2, recombinant ER-α (hER-αLBD triple mutant); conditions: for RBA: ratio of IC50 values of E2 to competitor, E2 set at 100
[4] = biological target: T1, ER-α; format: cell-based
Description: Ten nanomoles of recombinant ER-αwere immobilized on 500 μL Ni-NTA-agarose phase. […] After rolling for 16 hr, flow-through and three 500-μL washings with WB were collected. Liganded receptor was then eluted with 3 × 500 μL EB, and eluate was heated at 65°C for 30 min in order to denature recombinant ER-α. Collected fractions were diluted 10-fold in culture medium before their relative estrogenic activity was evaluated with MELN reporter cells.
Flow-through (1.5 mL), washing, and elution fractions (500 μL) were collected. Precolumn and flow-through fractions were diluted 10-fold in culture medium before their relative activities were evaluated with MELN and HAhLP reporter cells. Washing and elution fractions were diluted 30-fold in culture medium to take into account the fact that they were 3× concentrated.

[5] = biological target: T3, recombinant ER-α (Homo sapiens, UniProt P03372, C381S/C417S/C530S); format: cell-based; conditions: compound at concentration giving about 80% MELN transactivation, 1-100 nM recombinant ER-α
T3 construct: hER-αLBD(Lys302 → Pro552); made in house; host or cells: Escherichia coli BL21 DE3
T3 sequence (P03372 302-552 C381S/C417S/C530S): T2 sequence (P03372 302-552 C381S/C417S/C530S)
Description: MELN cells were seeded in 96-well white opaque tissue culture plates as described above. In separate tubes, estrogenic compounds at nonsaturating concentration mediating about 80% MELN cell activity or 0.1% methanol extract for environmental samples, were prepared 4×-concentrated and preincubated with the same volume of 4×-concentrated purified recombinant ER-α(1–100 nM final concentration) in test culture medium at 4°C for 16 hr. Medium from MELN cell culture plates was then removed and replaced by 100 μL of test culture medium supplemented with the same volume of preincubation medium. After 6 hr incubation at 37°C, luciferase activity was determined.

[6] = biological target: T4, AhR (Homo sapiens, UniProt P35869); assay: HAhLP cell luciferase assay (CYP1A1-Luc reporter in HeLa cells); format: cell-based; conditions: read-out: EC50 value, induction of luciferase expression
T4 construct: The dioxin reporter cell line was obtained by transfecting HeLa cells with CYP1A1-Luc and pSG5-puro plasmids; endogenous in cells; host or cells: HAhLP (HeLa stably transfected with CYP1A1-Luc and pSG5-puro)
T4 sequence (P35869 11-848): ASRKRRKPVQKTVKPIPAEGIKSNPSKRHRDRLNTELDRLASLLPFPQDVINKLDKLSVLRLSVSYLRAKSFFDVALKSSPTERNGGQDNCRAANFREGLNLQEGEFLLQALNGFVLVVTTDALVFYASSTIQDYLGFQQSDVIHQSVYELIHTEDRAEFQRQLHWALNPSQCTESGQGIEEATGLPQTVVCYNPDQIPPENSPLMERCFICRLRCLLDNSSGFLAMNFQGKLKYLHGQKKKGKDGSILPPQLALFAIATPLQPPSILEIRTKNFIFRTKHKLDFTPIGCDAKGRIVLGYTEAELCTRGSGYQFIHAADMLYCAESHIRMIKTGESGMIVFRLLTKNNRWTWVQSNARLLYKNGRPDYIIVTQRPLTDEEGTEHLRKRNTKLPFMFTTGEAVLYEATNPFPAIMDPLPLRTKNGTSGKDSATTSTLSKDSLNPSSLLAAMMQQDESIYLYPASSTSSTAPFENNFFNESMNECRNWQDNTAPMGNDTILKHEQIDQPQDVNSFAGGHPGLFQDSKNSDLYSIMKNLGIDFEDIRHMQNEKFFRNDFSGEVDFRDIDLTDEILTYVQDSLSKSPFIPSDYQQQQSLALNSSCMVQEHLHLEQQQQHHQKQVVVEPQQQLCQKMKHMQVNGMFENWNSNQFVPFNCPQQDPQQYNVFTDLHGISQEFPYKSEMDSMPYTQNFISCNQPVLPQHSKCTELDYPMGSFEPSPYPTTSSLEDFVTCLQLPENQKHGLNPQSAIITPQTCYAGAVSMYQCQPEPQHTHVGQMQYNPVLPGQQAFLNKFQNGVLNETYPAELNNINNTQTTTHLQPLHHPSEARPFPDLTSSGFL
Description: The dioxin reporter cell line was obtained by transfecting HeLa cells with CYP1A1-Luc and pSG5-puro plasmids. Selection of resistant clones by puromycin was performed at 0.5 μg/mL. The most dioxin-responsive clone was denominated HAhLP 1.15. […].
as §1
Cells were seeded at a density of 5 × 10^4 cells/well in 96-well white opaque tissue culture plates (Becton Dickinson, Le Pont de Claix, France) in 150 μL test culture medium. Compounds to be tested were prepared 4× concentrated in the same medium and 50 μL was added per well 8 hr after seeding. Cells were incubated with compounds for 16 hr. Experiments were performed in quadruplicate and repeated twice. […] The 96-well plate was then introduced in a microplate luminometer (Centro LB 960, Berthold Technologies), and intact living cell luminescence measured for 2 sec. Results are expressed as a percentage of maximum luciferase activity. […]
Sediment and water methanol extracts were applied to MELN and HAhLP cells at 0.3% (vol/vol) maximal concentration in test culture medium, and luciferase transactivation was measured.

[7] = half-maximal induction in MELN cell line, 16 hr, read-out: EC50 ± SE
[8] = ratio of EC50 values of E2 to compound, E2 set at 100
[9] = compound applied at 3 nM, 10 nM E2 = 100
[10] = compound applied at 300 nM, 10 nM E2 = 100

ClC(Cl)=C(c1ccc(Cl)cc1)c1ccccc1Cl [2,4′-DDE]
EC50 [1, 7]: 2.74 µM
RTP [1, 8]: 0.00063

ClC(Cl)=C(c1ccc(Cl)cc1)c1ccc(Cl)cc1 [4,4′-DDE]
EC50 [1, 7]: 25.6 µM
RTP [1, 8]: 0.00007

CCCCCCCCCc1ccc(O)cc1 [4-NP, 4n-nonylphenol]
IC50 [2]: 5.6 µM
RTP [1]: 0.00016
EC50 [1, 7]: 11 µM
RBA [3]: 0.11

CC(C)(c1ccc(O)cc1)c1ccc(O)cc1 [BPA, bisphenol A]
Induction of luciferase activity, Elution [4]: 70 ± 2%
Induction of luciferase activity, Flow-through [4]: 17 ± 2%
Induction of luciferase activity, Precolumn [4]: 70 ± 6%
Induction of luciferase activity, Washing [4]: 16 ± 2%

O=S1(=O)OC(c2ccc(O)cc2)(c2ccc(O)cc2)c2ccccc21 [Phenol red, phenol red]
Induction of luciferase activity, Elution [4]: 40 ± 4%
Induction of luciferase activity, Flow-through [4]: 16 ± 2%
Induction of luciferase activity, Precolumn [4]: 36 ± 5%
Induction of luciferase activity, Washing [4]: 15 ± 3%
RTP [1]: 0.00005
EC50 [1, 7]: 36.9 µM

C[C@H]1CCCC(=O)CCC/C=C/c2cc(O)cc(O)c2C(=O)O1 [Zearalenone, zearalenone]
EC50 [1]: 0.000313 µM
RTP [1, 8]: 5.62
capture by recombinant ER-α / inhibition of transactivation [5]: captured less efficiently than was E2

Clc1cc2c(cc1Cl)Oc1cc(Cl)c(Cl)cc1O2 [dioxin]
EC50 [6]: 0.0002 µM
activation of MELN cells ([1]; MELN cells): able to partially activate MELN cells

C[C@H]1CCC[C@H](O)CCCCCc2cc(O)cc(O)c2C(=O)O1 [α -Zearalanol, α-zearalanol]
Induction of luciferase activity, Elution [4, 9]: 82 ± 6%
Induction of luciferase activity, Flow-through [4, 9]: 17 ± 2%
Induction of luciferase activity, Precolumn [4, 9]: 88 ± 2%
Induction of luciferase activity, Washing [4, 9]: 16 ± 1%
EC50 [1, 7]: 0.000135 µM
RTP [1, 8]: 13.0

nonylphenol mixture [NPm]
Induction of luciferase activity, Elution [4, 10]: 56 ± 2%
Induction of luciferase activity, Flow-through [4, 10]: 17 ± 1%
Induction of luciferase activity, Precolumn [4, 10]: 57 ± 4%
Induction of luciferase activity, Washing [4, 10]: 16 ± 2%
EC50 [1, 7]: 0.339 µM
RTP [1, 8]: 0.0051
RBA [3]: 0.32
IC50 ([3]; read-out: IC50 ± SE, 0.75 pmol recombinant ER-α, 2 nM [3H]-E2, 500 μL, 4°C 16 hr): 1.86 µM
capture by recombinant ER-α / inhibition of transactivation [5]: only a slight or no inhibition
